PubChem BioAssay AID1963445 (Molecular Pharmacology Branch, DTP, NCI, 2024)
pIC50: −log10 of the molar value. Where “and” joins values, the source holds several entries; their conditions need not be identical. Equal entries are not always repeated.

System: MCF7 complex spheroid growth, % test/control
Assay: Anticancer human tumor MCF7 cell line growth inhibition [Asc];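 note: spheroids exposed to compounds for 7 days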;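 for viability, T/C: 100% = DMSO vehicle control wells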
Conditions: for viability, T/C: stronger effect = lower value; active = viability on the fitted dose curve at most 10% of control; inactive = the rest
Method in brief: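 Stromal components (HUVEC and hMSC) are co-assembled with the cancer cells into multicellular spheroids. Drugs are then added singly or paired, at concentrations falling by half-log increments from a clinically achievable maximum, capped at 10 microM without known Cmax.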

[1] = curve of first compound, second compound 0.0316 µM
[2] = curve of first compound, second compound 0.1 µM
[3] = curve of first compound, second compound 0.316 µM
[4] = curve of first compound, second compound 1 µM
[5] = second compound 0.0316 µM, first compound 0.0316 µM
[6] = second compound 0.0316 µM, first compound 0.1 µM
[7] = second compound 0.0316 µM, first compound 0.316 µM
[8] = second compound 0.0316 µM, first compound 1 µM
[9] = second compound 0.1 µM, first compound 0.0316 µM
[10] = second compound 0.1 µM, first compound 0.1 µM
[11] = second compound 0.1 µM, first compound 0.316 µM
[12] = second compound 0.1 µM, first compound 1 µM
[13] = second compound 0.316 µM, first compound 0.0316 µM
[14] = second compound 0.316 µM, first compound 0.1 µM
[15] = second compound 0.316 µM, first compound 0.316 µM
[16] = second compound 0.316 µM, first compound 1 µM
[17] = second compound 1 µM, first compound 0.0316 µM
[18] = second compound 1 µM, first compound 0.1 µM
[19] = second compound 1 µM, first compound 0.316 µM
[20] = second compound 1 µM, first compound 1 µM

O=C(c1cc(Cc2n[nH]c(=O)c3ccccc23)ccc1F)N1CCN(C(=O)C2CC2)CC1 + CNC(C)C(=O)NC1CN(S(=O)(=O)c2cccc(S(=O)(=O)N3CCC4CCC(C(=O)NC(c5ccccc5)c5ccccc5)N4C(=O)C(NC(=O)C(C)NC)C3)c2)CCC2CCC(C(=O)NC(c3ccccc3)c3ccccc3)N2C1=O
> 7.50: pIC50 (curve of first compound, second compound 0.00316 µM) | pIC50 (curve of first compound, second compound 0.01 µM) | pIC50 [1] | pIC50 [2] | pIC50 [3] | pIC50 [4]
inactive: viability, T/C (second compound 0.00316 µM, first compound 0.0316 µM) 10.6% | viability, T/C (second compound 0.00316 µM, first compound 0.1 µM) 15.2% | viability, T/C (second compound 0.00316 µM, first compound 0.316 µM) 8.86% | viability, T/C (second compound 0.00316 µM, first compound 1 µM) 10.7% | viability, T/C (second compound 0.00316 µM, first compound 3.16 µM) 10.2% | viability, T/C (second compound 0.00316 µM, first compound 10 µM) 11.4% | viability, T/C (second compound 0.01 µM, first compound 0.0316 µM) 16.2% | viability, T/C (second compound 0.01 µM, first compound 0.1 µM) 14.4% | viability, T/C (second compound 0.01 µM, first compound 0.316 µM) 14.5% | viability, T/C (second compound 0.01 µM, first compound 1 µM) 15.3% | viability, T/C (second compound 0.01 µM, first compound 3.16 µM) 16.9% | viability, T/C (second compound 0.01 µM, first compound 10 µM) 14% | viability, T/C [5] 13.8% | viability, T/C [6] 12% | viability, T/C [7] 11.5% | viability, T/C [8] 13.1% | viability, T/C (second compound 0.0316 µM, first compound 3.16 µM) 11.4% | viability, T/C (second compound 0.0316 µM, first compound 10 µM) 12.3% | viability, T/C [9] 13% | viability, T/C [10] 13.8% | viability, T/C [11] 11.8% | viability, T/C [12] 13.8% | viability, T/C (second compound 0.1 µM, first compound 3.16 µM) 12.1% | viability, T/C (second compound 0.1 µM, first compound 10 µM) 11.4% | viability, T/C [13] 14.7% | viability, T/C [14] 12.3% | viability, T/C [15] 11.8% | viability, T/C [16] 12.3% | viability, T/C (second compound 0.316 µM, first compound 3.16 µM) 11.3% | viability, T/C (second compound 0.316 µM, first compound 10 µM) 13.5% | viability, T/C [17] 11.1% | viability, T/C [18] 10.9% | viability, T/C [19] 13.7% | viability, T/C [20] 10.9% | viability, T/C (second compound 1 µM, first compound 3.16 µM) 11.9% | viability, T/C (second compound 1 µM, first compound 10 µM) 14.3%

NC(=O)C(=Cn1cnc(-c2cc(C(F)(F)F)cc(C(F)(F)F)c2)n1)c1cncnc1
7.08 and 7.18 and 7.02: pIC50 (curve of compound)
inactive: viability, T/C (compound 0.000949 µM) 113% and 86% and 71.3% | viability, T/C (compound 0.003 µM) 95.1% and 90% and 67.6% | viability, T/C (compound 0.00949 µM) 81.6% and 81.3% and 64.6% | viability, T/C (compound 0.03 µM) 83.8% and 96.8% and 60.7% | viability, T/C (compound 0.0949 µM) 41.4% and 32.1% and 51.5% | viability, T/C (compound 0.3 µM) 16% and 17.7% and 24.4%

CCN1CCN(Cc2ccc(Nc3ncc(F)c(-c4cc(F)c5nc(C)n(C(C)C)c5c4)n3)nc2)CC1
< 6.00: pIC50 (curve of compound)
inactive: viability, T/C (compound 0.00316 µM) 111% and 93.3% and 96.7% | viability, T/C (compound 0.01 µM) 95.5% and 104% and 99.9% | viability, T/C (compound 0.0316 µM) 103% and 93.3% and 99.2% | viability, T/C (compound 0.1 µM) 116% and 96.6% and 91.2% | viability, T/C (compound 0.316 µM) 99% and 97% and 81.4% | viability, T/C (compound 1 µM) 74.3% and 86.7% and 72.5%

COc1c(OCCCN2CCOCC2)ccc2c3n(c(=NC(=O)c4cnc(N)nc4)nc12)CCN3 + Cc1c(S(C)(=O)=O)c(-c2cc(F)cc(N3CCN(c4ccc(NS(=O)(=O)c5ccc(NC(CCN6CCC(C(=O)OCCCP(=O)(O)O)CC6)CSc6ccccc6)c(S(=O)(=O)C(F)(F)F)c5)cc4)CC3)c2)c(-c2ccc(Cl)cc2)n1C(C)C
7.12: pIC50 (curve of first compound, second compound 10 µM)
7.40: pIC50 [3]
7.42: pIC50 [2]
active: viability, T/C [8] 11.4% | viability, T/C [12] 9.98% | viability, T/C [16] 11.9%
inactive: viability, T/C (second compound 0.0316 µM, first compound 0.00316 µM) 89.8% | viability, T/C (second compound 0.0316 µM, first compound 0.01 µM) 73% | viability, T/C [5] 48.7% | viability, T/C [6] 33% | viability, T/C [7] 12% | viability, T/C (second compound 0.1 µM, first compound 0.00316 µM) 77.6% | viability, T/C (second compound 0.1 µM, first compound 0.01 µM) 69% | viability, T/C [9] 53.1% | viability, T/C [10] 33.2% | viability, T/C [11] 11.2% | viability, T/C (second compound 0.316 µM, first compound 0.00316 µM) 72.9% | viability, T/C (second compound 0.316 µM, first compound 0.01 µM) 72.2% | viability, T/C [13] 53.9% | viability, T/C [14] 30.3% | viability, T/C [15] 10.3% | viability, T/C (second compound 1 µM, first compound 0.00316 µM) 73.6% | viability, T/C (second compound 1 µM, first compound 0.01 µM) 68% | viability, T/C [17] 50.5% | viability, T/C [18] 27.4% | viability, T/C [19] 12.9% | viability, T/C [20] 13.1% | viability, T/C (second compound 3.16 µM, first compound 0.00316 µM) 76.5% | viability, T/C (second compound 3.16 µM, first compound 0.01 µM) 64.6% | viability, T/C (second compound 3.16 µM, first compound 0.0316 µM) 52.2% | viability, T/C (second compound 3.16 µM, first compound 0.1 µM) 30.4% | viability, T/C (second compound 3.16 µM, first compound 0.316 µM) 11.8% | viability, T/C (second compound 3.16 µM, first compound 1 µM) 13.4% | viability, T/C (second compound 10 µM, first compound 0.00316 µM) 171% | viability, T/C (second compound 10 µM, first compound 0.01 µM) 164% | viability, T/C (second compound 10 µM, first compound 0.0316 µM) 103% | viability, T/C (second compound 10 µM, first compound 0.1 µM) 34.7% | viability, T/C (second compound 10 µM, first compound 0.316 µM) 14.6% | viability, T/C (second compound 10 µM, first compound 1 µM) 11.9%
7.50: pIC50 [1]
7.48: pIC50 [4] | pIC50 (curve of first compound, second compound 3.16 µM)
